In ChEMBL document CHEMBL4002561, “Discovery of resveratrol derivatives as novel LSD1 inhibitors: Design, synthesis and their biological evaluation” (Eur J Med Chem, 2017):
Active and inactive are the calls of the source. The calls are words filed in the database; no cut-off is given here.

Experiments:
[1] = target: Lysine-specific histone demethylase 1A (Homo sapiens, UniProt O60341)
Description: Inhibition of recombinant full length LSD1 (unknown origin) expressed in Escherichia coli BL21 (DE) using H3K4me2 substrate by fluorescence assay

MGC-803 = assay: Effect on LSD1 expression in human MGC803 cells up to 2.5 uM after 5 days by DAPI staining based immunofluorescence assay; format: functional, cell-based

| IC50 [1] [µM] | SMILES | Activity (MGC-803) |
| --- | --- | --- |
| 10.2 | Oc1ccc(/C=C/c2cc(O)cc(O)c2)cc1 [RESVERATROL] |  |
|  | N/C(=N\O)c1ccc(/C=C/c2cc(O)c(O)cc2Br)cc1 | inactive |
|  | N/C(=N\O)c1cccc(/C=C/c2cc(O)c(O)cc2Br)c1 | inactive |
